In US9730940B2, “Purine inhibitors of human phosphatidylinositol 3-kinase delta” (priority 2012, dated 2017):

biological target: PI3K-alpha (Homo sapiens (Human), UniProt P42336); test: HTRF PI3K biochemical assay, alpha isoform; conditions: ratio PI3K-alpha IC50 value/PI3K-delta IC50 value
Sequence (P42336 whole entry, looked up, canonical isoform): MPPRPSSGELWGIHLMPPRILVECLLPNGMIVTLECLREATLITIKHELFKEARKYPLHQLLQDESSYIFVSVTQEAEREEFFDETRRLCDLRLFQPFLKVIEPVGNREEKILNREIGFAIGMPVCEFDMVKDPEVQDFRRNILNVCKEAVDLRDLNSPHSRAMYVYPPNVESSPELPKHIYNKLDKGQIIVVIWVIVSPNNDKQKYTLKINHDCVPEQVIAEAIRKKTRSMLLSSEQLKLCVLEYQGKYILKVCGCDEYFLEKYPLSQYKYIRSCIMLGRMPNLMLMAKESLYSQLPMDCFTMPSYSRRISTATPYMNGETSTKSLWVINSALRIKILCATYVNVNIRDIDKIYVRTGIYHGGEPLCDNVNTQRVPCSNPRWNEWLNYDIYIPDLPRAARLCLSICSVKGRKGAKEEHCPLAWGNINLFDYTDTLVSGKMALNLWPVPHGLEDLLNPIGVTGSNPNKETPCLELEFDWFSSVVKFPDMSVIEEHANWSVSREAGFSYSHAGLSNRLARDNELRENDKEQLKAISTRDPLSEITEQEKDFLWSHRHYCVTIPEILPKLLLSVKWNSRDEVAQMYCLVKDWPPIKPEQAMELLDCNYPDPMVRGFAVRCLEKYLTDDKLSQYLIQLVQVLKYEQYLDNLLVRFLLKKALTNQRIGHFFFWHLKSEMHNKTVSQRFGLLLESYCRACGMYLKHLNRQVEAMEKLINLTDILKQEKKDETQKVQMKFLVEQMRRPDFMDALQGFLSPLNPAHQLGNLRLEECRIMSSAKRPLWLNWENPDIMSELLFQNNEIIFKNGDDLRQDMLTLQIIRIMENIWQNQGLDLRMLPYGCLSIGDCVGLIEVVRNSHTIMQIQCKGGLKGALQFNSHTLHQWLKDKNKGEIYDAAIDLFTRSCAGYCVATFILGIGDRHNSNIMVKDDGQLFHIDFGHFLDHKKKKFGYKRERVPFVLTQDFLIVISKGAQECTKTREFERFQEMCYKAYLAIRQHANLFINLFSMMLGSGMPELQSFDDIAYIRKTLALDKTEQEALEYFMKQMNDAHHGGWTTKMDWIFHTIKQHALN
Sequence (P27986 whole entry partner, looked up, canonical isoform): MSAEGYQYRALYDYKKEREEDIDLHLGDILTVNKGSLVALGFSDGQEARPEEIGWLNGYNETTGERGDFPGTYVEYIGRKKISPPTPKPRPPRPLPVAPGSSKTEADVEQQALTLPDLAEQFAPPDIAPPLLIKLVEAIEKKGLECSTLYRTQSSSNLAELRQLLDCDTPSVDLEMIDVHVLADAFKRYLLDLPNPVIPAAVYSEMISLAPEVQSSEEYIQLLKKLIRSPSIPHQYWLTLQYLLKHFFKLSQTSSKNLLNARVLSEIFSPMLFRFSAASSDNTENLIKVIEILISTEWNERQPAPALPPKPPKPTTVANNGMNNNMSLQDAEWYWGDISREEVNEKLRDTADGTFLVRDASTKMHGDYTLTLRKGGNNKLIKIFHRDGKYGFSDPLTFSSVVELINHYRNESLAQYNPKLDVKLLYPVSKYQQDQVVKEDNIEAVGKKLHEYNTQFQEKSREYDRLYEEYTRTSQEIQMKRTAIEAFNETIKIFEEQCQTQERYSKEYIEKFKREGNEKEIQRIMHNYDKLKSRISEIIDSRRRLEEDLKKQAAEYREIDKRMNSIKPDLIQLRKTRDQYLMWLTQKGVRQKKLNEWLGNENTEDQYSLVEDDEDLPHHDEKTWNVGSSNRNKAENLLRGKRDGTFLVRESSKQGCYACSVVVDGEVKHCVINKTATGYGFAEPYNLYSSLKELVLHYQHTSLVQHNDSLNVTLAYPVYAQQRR

Structure (SMILES)	Relative Selectivity versus PI3Kalpha
CCn1ncc(-c2nc3c(OC4CCN(C(=O)c5ccccc5)C4)ncnc3n2C)c1C (stereo not shown) [Compound 2-1, 8-(1-ethyl-5-methyl-1H-pyrazol-4-yl)-9-methyl-6-{[1-(phenylcarbonyl)pyrrolidin-3-yl]oxy}-9H-purine]	>10
CCn1c(-c2cnc(C)nc2)nc2c(OC3CN(Cc4ccccc4)CC3(C)C)ncnc21 (stereo not shown) [Compound 6-6, 6-((1-benzyl-4,4-dimethylpyrrolidin-3-yl)oxy)-9-ethyl-8-(2-methylpyrimidin-5-yl)-9H-purine]	>10
Cn1c(-c2ccc(N3CCCC3)nc2)nc2c(O[C@H]3CCN(C(=O)OC(C)(C)C)C3)ncnc21 [Compound 1-27, tert-butyl (3S)-3-{[9-methyl-8-(6-pyrrolidin-1-ylpyridin-3-yl)-9H-purin-6-yl]oxy}pyrrolidine-1-carboxylate]	>10
CCn1c(-c2cnc(C)nc2)nc2c(O[C@H]3CCN(c4ccc5cnoc5c4)C3)ncnc21 [Compound 7-25, 6-{[(3S)-1-(1,2-benzisoxazol-6-yl)pyrrolidin-3-yl]oxy}-9-ethyl-8-(2-methylpyrimidin-5-yl)-9H-purine]	>10
CCn1ncc(-c2nc3c(OC4CCN(C(=O)C5CCCC5)C4)ncnc3n2C)c1C (stereo not shown) [Compound 2-2, 6-{[1-(cyclopentylcarbonyl)pyrrolidin-3-yl]oxy}-8-(1-ethyl-5-methyl-1H-pyrazol-4-yl)-9-methyl-9H-purine]	>10
CCn1ncc(-c2nc3c(O[C@H]4CCN(C(=O)OC(C)C)C4)ncnc3n2C)c1C [Compound 1-38, 1-methylethyl (3S)-3-{[8-(1-ethyl-5-methyl-1H-pyrazol-4-yl)-9-methyl-9H-purin-6-yl]oxy}pyrrolidine-1-carboxylate]	>10
CCn1ncc(-c2nc3c(O[C@H]4CCN(C(=O)OCC(C)C)C4)ncnc3n2C)c1C [Compound 1-4, 2-methylpropyl (3S)-3-{[8-(1-ethyl-5-methyl-1H-pyrazol-4-yl)-9-methyl-9H-purin-6-yl]oxy}pyrrolidine-1-carboxylate]	>10
CCn1ncc(-c2nc3c(S(=O)(=O)[C@H]4CCN(C(=O)OC(C)(C)C)C4)ncnc3n2C)c1C [Compound 10-2, (S)-tert-butyl 3-((8-(1-ethyl-5-methyl-1H-pyrazol-4-yl)-9-methyl-9H-purin-6-yl)sulfonyl)pyrrolidine-1-carboxylate]	8
CCn1ncc(-c2nc3c(O[C@H]4CCN(C(=O)c5[nH]ncc5C)C4)ncnc3n2C)c1C [Compound 2-48, 8-(1-ethyl-5-methyl-1H-pyrazol-4-yl)-9-methyl-6-({(3S)-1-[(4-methyl-1H-pyrazol-5-yl)carbonyl]pyrrolidin-3-yl}oxy)-9H-purine]	>10
CCn1ncc(-c2nc3c(O[C@H]4CCN(C(=O)c5nnc(C)o5)C4)ncnc3n2C)c1C [Compound 2-81, 8-(1-ethyl-5-methyl-1H-pyrazol-4-yl)-9-methyl-6-({(3S)-1-[(5-methyl-1,3,4-oxadiazol-2-yl)carbonyl]pyrrolidin-3-yl}oxy)-9H-purine]	5
CCn1c(-c2cnc(C)nc2)nc2c(O[C@H]3CCN(C(=O)[C@H]4CCC[C@H]4N)C3)ncnc21 [Compound 2-103, (1R,2S)-2-{[(3S)-3-{[9-ethyl-8-(2-methylpyrimidin-5-yl)-9H-purin-6-yl]oxy}pyrrolidin-1-yl]carbonyl}cyclopentanamine]	>10
CCn1c(-c2cnc(C)nc2)nc2c(O[C@H]3CC[C@@H](NC(=O)C4CC4)CC3)ncnc21 [Compound 9-8, N-(cis-4-{[9-ethyl-8-(2-methylpyrimidin-5-yl)-9H-purin-6-yl]oxy}cyclohexyl)cyclopropane carboxamide]	>10
CCn1ncc(-c2nc3c(O[C@H]4CCN(C(=O)C5CC(F)(F)C5)C4)ncnc3n2C)c1C [Compound 2-106, 6-({(3S)-1-[(3,3-difluorocyclobutyl)carbonyl]pyrrolidin-3-yl}oxy)-8-(1-ethyl-5-methyl-1H-pyrazol-4-yl)-9-methyl-9H-purine]	>10
CCn1ncc(-c2nc3c(O[C@H]4CCN(C(=O)OC)C4)ncnc3n2C)c1C [Compound 1-36, methyl (3S)-3-{[8-(1-ethyl-5-methyl-1H-pyrazol-4-yl)-9-methyl-9H-purin-6-yl]oxy}pyrrolidine-1-carboxylate]	>10
CCn1c(-c2cnc(C)nc2)nc2c(O[C@H]3CCN(C(=O)C4CC4C)C3)ncnc21 (stereo partly drawn) [Compound 2-108, 9-ethyl-6-({(3S)-1-[(2-methylcyclopropyl)carbonyl]pyrrolidin-3-yl}oxy)-8-(2-methylpyrimidin-5-yl)-9H-purine]	>10
CCn1ncc(-c2nc3c(O[C@H]4CCN(C(=O)c5cc(C)n(C)n5)C4)ncnc3n2C)c1C [Compound 2-59, 6-({(3S)-1-[(1,5-dimethyl-1H-pyrazol-3-yl)carbonyl]pyrrolidin-3-yl}oxy)-8-(1-ethyl-5-methyl-1H-pyrazol-4-yl)-9-methyl-9H-purine]	2

Structure (SMILES)	Relative Selectivity versus PI3Kalpha
CCn1c(-c2cnc(C)nc2)nc2c(O[C@H]3CCN(C(=O)[C@@H]4CCC[C@H]4N)C3)ncnc21 [Compound 2-101, (1R,2R)-2-{[(3S)-3-{[9-ethyl-8-(2-methylpyrimidin-5-yl)-9H-purin-6-yl]oxy}pyrrolidin-1-yl]carbonyl}cyclopentanamine]	>10
CCn1c(-c2cnc(C)nc2)nc2c(O[C@H]3CCN(C(=O)N4CCC(C)(O)C4)C3)ncnc21 (stereo partly drawn) [Compound 5-20, 1-{[(3S)-3-{[9-ethyl-8-(2-methylpyrimidin-5-yl)-9H-purin-6-yl]oxy}pyrrolidin-1-yl]carbonyl}-3-methylpyrrolidin-3-ol]	>10
CCn1c(-c2cnc(C)nc2)nc2c(OC3(C)CCN(C(=O)C4CC4)C3)ncnc21 (stereo not shown) [Compound 2-141, 6-{[1-(cyclopropylcarbonyl)-3-methylpyrrolidin-3-yl]oxy}-9-ethyl-8-(2-methylpyrimidin-5-yl)-9H-purine]	>10
CCn1ncc(-c2nc3c(O[C@H]4CCN(C(=O)c5cc(C)[nH]n5)C4)ncnc3n2C)c1C [Compound 2-75, 8-(1-ethyl-5-methyl-1H-pyrazol-4-yl)-9-methyl-6-({(3S)-1-[(5-methyl-1H-pyrazol-3-yl)carbonyl]pyrrolidin-3-yl}oxy)-9H-purine]	5
CCn1c(-c2cnc(C)nc2)nc2c(OC3CCN(C(=O)N(C)c4ccccc4)CC3)ncnc21 [Compound 5-12, 4-{[9-ethyl-8-(2-methylpyrimidin-5-yl)-9H-purin-6-yl]oxy}-N-methyl-N-phenylpiperidine-1-carboxamide]	>10
CCn1c(-c2cnc(OC)c(F)c2)nc2c(O[C@H]3CCN(C(=O)c4ccn(C)n4)C3)ncnc21 [Compound 3-57, 9-ethyl-8-(5-fluoro-6-methoxypyridin-3-yl)-6-({(3S)-1-[(1-methyl-1H-pyrazol-3-yl)carbonyl]pyrrolidin-3-yl}oxy)-9H-purine]	>10
CCn1ncc(-c2nc3c(O[C@H]4CCN(C(=O)C5CCc6nnnn65)C4)ncnc3n2C)c1C (stereo partly drawn) [Compound 2-84, 6-{[(3S)-1-(6,7-dihydro-5H-pyrrolo[1,2-d]tetrazol-5-ylcarbonyl)pyrrolidin-3-yl]oxy}-8-(1-ethyl-5-methyl-1H-pyrazol-4-yl)-9-methyl-9H-purine (non-preferred name)]	>10
CCn1ncc(-c2nc3c(O[C@H]4CCN(C(=O)c5c[nH]nc5C(F)(F)F)C4)ncnc3n2C)c1C [Compound 2-43, 8-(1-ethyl-5-methyl-1H-pyrazol-4-yl)-9-methyl-6-{[(3S)-1-{[3-(trifluoromethyl)-1H-pyrazol-4-yl]carbonyl}pyrrolidin-3-yl]oxy}-9H-purine]	10
CCn1ncc(-c2nc3c(O[C@H]4CCN(C(=O)C(C)(C)C)C4)ncnc3n2C)c1C [Compound 2-92, (S)-1-(3-((8-(1-ethyl-5-methyl-1H-pyrazol-4-yl)-9-methyl-9H-purin-6-yl)oxy)pyrrolidin-1-yl)-2,2-dimethylpropan-1-one]	>10
CCCN1CC[C@H](Oc2ncnc3c2nc(-c2cnn(CC)c2C)n3C)C1 [Compound 6-5, (S)-8-(1-ethyl-5-methyl-1H-pyrazol-4-yl)-9-methyl-6-((1-propylpyrrolidin-3-yl)oxy)-9H-purine]	>10
CCn1ncc(-c2nc3c(O[C@H]4CCN(C(=O)c5nccn5C)C4)ncnc3n2C)c1C [Compound 2-39, 8-(1-ethyl-5-methyl-1H-pyrazol-4-yl)-9-methyl-6-({(3S)-1-[(1-methyl-1H-imidazol-2-yl)carbonyl]pyrrolidin-3-yl}oxy)-9H-purine]	>10
CCC1CN(C(=O)C2CC2)CC1Oc1ncnc2c1nc(-c1cnc(C)nc1)n2CC (stereo not shown) [Compound 3-46, [3R,4S and 3S,4R]-6-{[1-(cyclopropylcarbonyl)-4-ethylpyrrolidin-3-yl]oxy}-9-ethyl-8-(2-methylpyrimidin-5-yl)-9H-purine]	>10
CCn1c(-c2cnc(C)nc2)nc2c(OC3CN(C(=O)C4CC4)CC3CF)ncnc21 (single isomer, unassigned) [Compound 3-68, cyclopropyl([(3S,4R) or (3R,4S)]-3-((9-ethyl-8-(2-methylpyrimidin-5-yl)-9H-purin-6-yl)oxy)-4-(fluoromethyl)pyrrolidin-1-yl)methanone]	>10
CCn1ncc(-c2nc3c(O[C@H]4CCN(C(C)=O)C4)ncnc3n2C)c1C [Compound 2-90, (S)-1-(3-((8-(1-ethyl-5-methyl-1H-pyrazol-4-yl)-9-methyl-9H-purin-6-yl)oxy)pyrrolidin-1-yl)ethanone]	>10
CCC(=O)N1CC[C@H](Oc2ncnc3c2nc(-c2cnc(C(C)(C)C)s2)n3CC)C1 [Compound 2-95, (S)-1-(3-((8-(2-(tert-butyl)thiazol-5-yl)-9-ethyl-9H-purin-6-yl)oxy)pyrrolidin-1-yl)propan-1-one]	>10
